Data published in ChEMBL document CHEMBL6109103, “Dodecapeptides derived from human cathelicidin with potent activity against carbapenem-resistant Acinetobacter baumannii” (Eur J Med Chem, 2025).
Converted amounts (≈) assume the structure as drawn. The source made the active and inactive calls. No cut-off for these calls is given here. Positions of bridges follow the written chain, without caps; N, C: chain ends. Non-standard residues stand in square brackets, D forms with d. Residues, ends and D or L forms follow the SMILES beside them. S5 = C=CCCC[C@](C)(N)C(=O)O

Experiments:
[1] = test system: Acinetobacter baumannii; assay: Antibacterial activity against multidrug-resistant Acinetobacter baumannii assessed as inhibition of bacterial growth incubated for 24 hrs by broth dilution assay; assay type: functional
[2] = test system: Acinetobacter baumannii; assay: Antibacterial activity against Acinetobacter baumannii ATCC 19606 assessed as inhibition of bacterial growth incubated for 24 hrs by broth dilution assay; assay type: functional
[3] = test system: Staphylococcus aureus; assay: Antibacterial activity against Methicillin-resistant Staphylococcus aureus ATCC 43300 assessed as inhibition of bacterial growth incubated for 24 hrs by broth dilution assay; assay type: functional
[4] = test system: Staphylococcus aureus; assay: Antibacterial activity against Staphylococcus aureus […] assessed as inhibition of bacterial growth incubated for 24 hrs by broth dilution assay; assay type: functional
[5] = test system: Acinetobacter baumannii; assay: Antibacterial activity against carbapenem-resistant Acinetobacter baumannii clinical isolate 1 assessed as inhibition of bacterial growth incubated for 24 hrs by broth dilution assay; assay type: functional
[6] = test system: Acinetobacter baumannii; assay: Antibacterial activity against carbapenem-resistant Acinetobacter baumannii clinical isolate 2 assessed as inhibition of bacterial growth incubated for 24 hrs by broth dilution assay; assay type: functional
[7] = test system: Acinetobacter baumannii; assay: Antibacterial activity against carbapenem-resistant Acinetobacter baumannii clinical isolate 3 assessed as inhibition of bacterial growth incubated for 24 hrs by broth dilution assay; assay type: functional
[8] = test system: Acinetobacter baumannii; assay: Antibacterial activity against carbapenem-resistant Acinetobacter baumannii clinical isolate 4 assessed as inhibition of bacterial growth incubated for 24 hrs by broth dilution assay; assay type: functional
[9] = test system: Acinetobacter baumannii; assay: Antibacterial activity against carbapenem-resistant Acinetobacter baumannii clinical isolate 5 assessed as inhibition of bacterial growth incubated for 24 hrs by broth dilution assay; assay type: functional
[10] = test system: Acinetobacter baumannii; assay: Antibacterial activity against carbapenem-resistant Acinetobacter baumannii clinical isolate 6 assessed as inhibition of bacterial growth incubated for 24 hrs by broth dilution assay; assay type: functional
[11] = test system: Acinetobacter baumannii; assay: Antibacterial activity against carbapenem-resistant Acinetobacter baumannii clinical isolate 7 assessed as inhibition of bacterial growth incubated for 24 hrs by broth dilution assay; assay type: functional
[12] = test system: Acinetobacter baumannii; assay: Antibacterial activity against carbapenem-resistant Acinetobacter baumannii clinical isolate 8 assessed as inhibition of bacterial growth incubated for 24 hrs by broth dilution assay; assay type: functional
[13] = test system: Acinetobacter baumannii; assay: Synergistic antibacterial activity against carbapenem-resistant Acinetobacter baumannii clinical isolate 6 in presence of CTX by microdilution checkerboard assay; assay type: functional, organism-based
[14] = test system: Acinetobacter baumannii; assay: Synergistic antibacterial activity against carbapenem-resistant Acinetobacter baumannii clinical isolate 6 in presence of tetracycline by microdilution checkerboard assay; assay type: functional, organism-based
[15] = test system: proteinase K; assay: Proteolytic stability assessed as proteinase K (unknown origin)-mediated drug degradation at 500 microg/ml measured for 20 mins by LC-MS analysis; assay type: ADME, Homo sapiens; details: at 500 µg/mL, read-out: Drug degradation
[16] = test system: Pseudomonas aeruginosa; assay: Antibacterial activity against human Pseudomonas aeruginosa assessed as inhibition of bacterial growth; assay type: functional, organism-based
[17] = test system: Escherichia coli; assay: Antibacterial activity against human Escherichia coli assessed as inhibition of bacterial growth; assay type: functional, organism-based
[18] = Binding affinity to gram negative bacterial lipid II assessed as dissociation constant by BLI analysis; parameters: species or system Bacteria
[19] = target: Lipoteichoic acid; assay: Binding affinity to […] bacterial Lipoteichoic acid assessed as dissociation constant by BLI analysis; parameters: species or system Bacteria
[20] = test system: Acinetobacter baumannii; assay: Induction of morphological changes in carbapenem-resistant Acinetobacter baumannii at 6.25 microg/ml measured for 24 hrs by SEM analysis; assay type: functional, organism-based; details: dose 6.25 µg/ml
[21] = test system: HaCaT; assay: Cytotoxicity against human HaCaT cells assessed as cell death up to 100 microg/ml measured upto 24 hrs; assay type: toxicity, cell-based; details: dose < 100 µg/ml
[22] = Hemolytic activity at mouse RBC assessed as hemolysis; assay type: toxicity, cell-based, Erythrocyte; details: mouse red blood cells, read-out: Activity
[23] = Toxicity in BALB/c mouse assessed as animal survival at 4 to 64 mg/kg, ip measured for 5 days; assay type: organism-based; details: in vivo, 120 h, dose 4-64 mg/kg, time 5 day
[24] = Toxicity in BALB/c mouse assessed as heart damage at 64 mg/kg, ip measured for 3 days by H and E staining based analysis; assay type: organism-based; details: in vivo, 72 h, time 3 day
[25] = Toxicity in BALB/c mouse assessed as liver damage at 64 mg/kg, ip measured for 3 days by H and E staining based analysis; assay type: organism-based; details: in vivo, 72 h, time 3 day
[26] = Toxicity in BALB/c mouse assessed as spleen damage at 64 mg/kg, ip measured for 3 days by H and E staining based analysis; assay type: organism-based; details: in vivo, 72 h, time 3 day
[27] = Toxicity in BALB/c mouse assessed as lung damage at 64 mg/kg, ip measured for 3 days by H and E staining based analysis; assay type: organism-based; details: in vivo, 72 h, time 3 day
[28] = Toxicity in BALB/c mouse assessed as kidney damage at 64 mg/kg, ip measured for 3 days by H and E staining based analysis; assay type: organism-based; details: in vivo, 72 h, time 3 day
[29] = test system: Acinetobacter baumannii; assay: Antibacterial activity against carbapenem-resistant Acinetobacter baumannii clinical isolate 6 infected in BALB/c mouse assessed as survival rate at 1.25 mg/kg, NAS administered once a day for 3 days; assay type: functional; details: 72 h, time 3 day
[30] = Toxicity in BALB/c mouse assessed as animal survival at 1.25 mg/kg, NAS measured for 5 days; assay type: organism-based; details: in vivo, inhaled or intranasal, time 5 day
[31] = Toxicity in BALB/c mouse assessed as heart damage at 16 mg/kg, ip measured for 3 days by H and E staining based analysis; assay type: organism-based; details: in vivo, 72 h, time 3 day
[32] = Toxicity in BALB/c mouse assessed as liver damage at 16 mg/kg, ip measured for 3 days by H and E staining based analysis; assay type: organism-based; details: in vivo, 72 h, time 3 day
[33] = Toxicity in BALB/c mouse assessed as spleen damage at 16 mg/kg, ip measured for 3 days by H and E staining based analysis; assay type: organism-based; details: in vivo, 72 h, time 3 day
[34] = Toxicity in BALB/c mouse assessed as lung damage at 16 mg/kg, ip measured for 3 days by H and E staining based analysis; assay type: organism-based; details: in vivo, 72 h, time 3 day

With CC[C@H](C)[C@H](NC(=O)[C@H](CCCNC(=N)N)NC(=O)[C@@H](N)CCCCN)C(=O)N[C@@]1(C)CCC/C=C\CCC[C@@](C)(C(=O)N[C@H](C(=O)N[C@@H](Cc2ccccc2)C(=O)N[C@@H](CC(C)C)C(=O)N[C@@H](CCCNC(=N)N)C(=O)O)[C@@H](C)CC)NC(=O)[C@H]([C@@H](C)CC)NC(=O)[C@H](CCCNC(=N)N)NC(=O)[C@H](CCCNC(=N)N)NC1=O (H-KRI[S5]RRI[S5]IFLR-OH; staple (Z) 4-8) the MIC [1] was 5 µg/mL (≈ 3.08 µM), the MIC [2] was 5 µg/mL (≈ 3.08 µM) and the MIC [3] was 80 µg/mL (≈ 49.3 µM). The MIC [4] was 80 µg/mL (≈ 49.3 µM), the MIC [5] was 5 µg/mL (≈ 3.08 µM) and the MIC [6] was 10 µg/mL (≈ 6.17 µM). It also gave an MIC [7] of 5 µg/mL (≈ 3.08 µM), an MIC [8] of 10 µg/mL (≈ 6.17 µM) and an MIC [9] of 5 µg/mL (≈ 3.08 µM). The MIC [10] was 2.5 µg/mL (≈ 1.54 µM), the MIC [11] was 20 µg/mL (≈ 12.3 µM) and the MIC [12] was 5 µg/mL (≈ 3.08 µM). The Activity [13] was “Active”, the Activity [14] was “Active” and the metabolised at 20 min, 500 microg/ml [15] was 17.8%. The Activity [16] was “Active”, the Activity [17] was “Active” and the Kd [18] was 5.9 nM. For the same compound, the Kd [19] was 48.9 nM, the Activity [20] was “Active” and the Activity [21] was “Non-toxic”. The hemolysis [22] was under 1%, the Activity [23] was “Non-toxic” and the Activity [24] was “Non-toxic”. For the same compound, the Activity [25] was “Non-toxic”, the Activity [26] was “Non-toxic” and the Activity [27] was “Non-toxic”. For the same compound, the Activity [28] was “Non-toxic”, the survival at 1.25 mg/kg [29] was 50% and the survival at 120 h [30] was 70%.
With CC(C)CCCCC(=O)N[C@@H](CCN)C(=O)N[C@H](C(=O)N[C@@H](CCN)C(=O)N[C@H]1CCNC(=O)[C@H]([C@@H](C)O)NC(=O)[C@H](CCN)NC(=O)[C@H](CCN)NC(=O)[C@H](CC(C)C)NC(=O)[C@@H](Cc2ccccc2)NC(=O)[C@H](CCN)NC1=O)[C@@H](C)O.CC[C@H](C)CCCCC(=O)N[C@@H](CCN)C(=O)N[C@H](C(=O)N[C@@H](CCN)C(=O)N[C@H]1CCNC(=O)[C@H]([C@@H](C)O)NC(=O)[C@H](CCN)NC(=O)[C@H](CCN)NC(=O)[C@H](CC(C)C)NC(=O)[C@@H](Cc2ccccc2)NC(=O)[C@H](CCN)NC1=O)[C@@H](C)O (HELM PEPTIDE1{[CC[C@H](C)CCCCC(=O)[*:2]].[Dab].T.[Dab].[Dab].[Dab].[dF].L.[Dab].[Dab].T}$PEPTIDE1,PEPTIDE1,5:R3-11:R2$$$V2.0) the Activity [31] was “Non-toxic”, the Activity [32] was “Non-toxic” and the Activity [33] was “Non-toxic”. For the same compound, the Activity [34] was “Non-toxic”.
